In US20070134165A1 (Altana Pharma AG, priority 2004, published 2007):

Tests used:
patients with asthma = assay: Double-blind, randomized, parallel group clinical study, ciclesonide vs budesonide once daily in the evening for 12 weeks; format: in vivo; details: for FEV1 / FVC / PEF / morning PEF: ex smokers, ITT, LSmeans
Description: Another objective was to provide information on the safety and tolerability of ciclesonide.

[1] = cited from earlier work
asthma patients = details: ex-smokers, ciclesonide versus budesonide; cited from earlier work
[2] = tested on: glucocorticosteroid receptor; details: ratio versus ciclesonide; cited from earlier work
[3] = end of 12 weeks, CIC 200 μg or BUD 400 μg once daily in the evening

SMILES	change in FEV1, subgroup analysis (patients with asthma; (ex-)smokers subgroup, after 12 weeks of treatment)	FEV1 (patients with asthma; [3]) [L]	FVC (patients with asthma; [3]) [L]	PEF (patients with asthma; [3]) [L/min]	morning PEF (patients with asthma; [3]) [L/min]	FEV1 (patients with asthma; start of treatment) [L]	FVC (patients with asthma; start of treatment) [L]	PEF (patients with asthma; start of treatment) [L/min]	morning PEF (patients with asthma; start of treatment) [L/min]	improvement in lung function compared to treatment with budesonide (patients with asthma; smoking asthmatic patients)	concentration of the drug in the lungs ([1]; in vivo)	metabolism by liver oxidases ([1]; in vivo)	plasma half-life ([1]; in vivo)	systemic activity ([1]; in vivo)	absorption after oral administration ([1]; oral)	subgroup analysis of FEV1 (asthma patients)	affinity to the glucocorticosteroid receptor relative to ciclesonide [2]
CC(C)C(=O)OCC(=O)[C@@]12O[C@H](C3CCCCC3)O[C@@H]1C[C@H]1[C@@H]3CCC4=CC(=O)C=C[C@]4(C)[C@H]3[C@@H](O)C[C@@]12C [Ciclesonide, [11β,16α(R)]-16,17-[(Cyclohexylmethylene)bis(oxy)]-11-hydroxy-21-(2-methyl-1-oxo-propoxy)pregna-1,4-diene-3,20-dione]	statistically significant increases	2.773	3.604	391	416	2.336	3.146	310	370	superior improvements in lung function	high	very high	low	low	only moderately absorbed	trend for superiority of ciclesonide over budesonide	–
C[C@]12C=CC(=O)C=C1CC[C@@H]1[C@@H]2[C@@H](O)C[C@@]2(C)[C@H]1C[C@H]1O[C@@H](C3CCCCC3)O[C@]12C(=O)CO (mixture of isomers) [desisobutyryl-ciclesonide, 16α,17-(22R,S)-cyclohexylmethylenedioxy-11β,21-dihydroxypregna-1,4-diene-3,20-dione]	–	–	–	–	–	–	–	–	–	–	–	–	–	–	–	–	approximately 100 times higher
CCCC1O[C@@H]2C[C@H]3[C@@H]4CCC5=CC(=O)C=C[C@]5(C)[C@H]4[C@@H](O)C[C@]3(C)[C@]2(C(=O)CO)O1 (stereo partly shown) [budesonide]	–	2.602	3.385	357	391	2.339	3.146	310	370	–	–	–	–	–	–	–	–
